{"source": "patent US20220169632A1", "about": "“METHODS AND MATERIALS FOR INCREASING OR MAINTAINING NICOTINAMIDE MONONUCLEOTIDE ADENYLYL TRANSFERASE-2 (NMNAT2) POLYPEPTIDE LEVELS” (University of Pittsburgh - Of the Commonwealth System of …, priority 2019, published 2022)"}
{"system": "NMNAT2", "test": "NMNAT2-Hibit nano-luciferase activity in transfected U87MG cells, 25 μM, 24 hours", "assay_type": "cell-based", "settings": "NMNAT2-Hibit luc plasmid, 24 hours (Table B)", "experimental": "Selected compounds were tested in vitro. Briefly, U87MG cells were transfected with NMNAT2-Hibit luc plasmid. Cells were treated with a test compound at 25 μM for 24 hours. Cells were then collected and assayed for nano-luciferase activity."}
{"molecule": "CN(C(=O)NCc1noc2ccccc12)c1ccc(Br)cc1", "note": "[Compound 181015]", "B: compound efficacy (IC50) for NMNAT2 activation; increase in NMNAT2 luciferase activity": "+ (“+” <20% increase in NMNAT2 luciferase activity.)"}
{"molecule": "Cc1ccc(C)c(N(C)C(=O)NCc2noc3ccccc23)c1", "note": "[Compound 181016]", "B: compound efficacy (IC50) for NMNAT2 activation; increase in NMNAT2 luciferase activity": "+ (“+” <20% increase in NMNAT2 luciferase activity.)"}
{"molecule": "CN(C(=O)NCc1noc2ccccc12)c1ccccc1Cl", "note": "[Compound 181017]", "B: compound efficacy (IC50) for NMNAT2 activation; increase in NMNAT2 luciferase activity": "+ (“+” <20% increase in NMNAT2 luciferase activity.)"}
{"molecule": "Cc1cccc(N(C)C(=O)NCc2noc3ccccc23)c1", "note": "[Compound 181018]", "B: compound efficacy (IC50) for NMNAT2 activation; increase in NMNAT2 luciferase activity": "+ (“+” <20% increase in NMNAT2 luciferase activity.)"}
{"molecule": "COc1ccc(CNC(=O)NCc2noc3ccccc23)cc1", "note": "[Compound 181019]", "B: compound efficacy (IC50) for NMNAT2 activation; increase in NMNAT2 luciferase activity": "+ (“+” <20% increase in NMNAT2 luciferase activity.)"}
{"molecule": "CCOc1ccccc1CNC(=O)NCc1noc2ccccc12", "note": "[Compound 181020]", "B: compound efficacy (IC50) for NMNAT2 activation; increase in NMNAT2 luciferase activity": "+ (“+” <20% increase in NMNAT2 luciferase activity.)"}
{"molecule": "Cc1ccc(NC(=O)NCc2noc3ccccc23)c(Cl)c1", "note": "[Compound 181021]", "B: compound efficacy (IC50) for NMNAT2 activation; increase in NMNAT2 luciferase activity": "+ (“+” <20% increase in NMNAT2 luciferase activity.)"}
{"molecule": "Cc1ccc(CNC(=O)NCc2noc3ccccc23)cc1", "note": "[Compound 181022]", "B: compound efficacy (IC50) for NMNAT2 activation; increase in NMNAT2 luciferase activity": "+ (“+” <20% increase in NMNAT2 luciferase activity.)"}
{"molecule": "Cc1cccc(CCNC(=O)NCc2noc3ccccc23)c1", "note": "[Compound 181023]", "B: compound efficacy (IC50) for NMNAT2 activation; increase in NMNAT2 luciferase activity": "+ (“+” <20% increase in NMNAT2 luciferase activity.)"}
{"molecule": "CCc1ccccc1NC(=O)NCc1noc2ccccc12", "note": "[Compound 181024]", "B: compound efficacy (IC50) for NMNAT2 activation; increase in NMNAT2 luciferase activity": "+ (“+” <20% increase in NMNAT2 luciferase activity.)"}
{"molecule": "O=C(NCc1cccc(Cl)c1)NCc1noc2ccccc12", "note": "[Compound 181025]", "B: compound efficacy (IC50) for NMNAT2 activation; increase in NMNAT2 luciferase activity": "+ (“+” <20% increase in NMNAT2 luciferase activity.)"}
{"molecule": "COc1ccc(NC(=O)NCc2noc3ccccc23)cc1", "note": "[Compound 181026]", "B: compound efficacy (IC50) for NMNAT2 activation; increase in NMNAT2 luciferase activity": "+ (“+” <20% increase in NMNAT2 luciferase activity.)"}
{"molecule": "O=C(NCc1noc2ccccc12)Nc1ccccc1Cl", "note": "[Compound 181027]", "B: compound efficacy (IC50) for NMNAT2 activation; increase in NMNAT2 luciferase activity": "+ (“+” <20% increase in NMNAT2 luciferase activity.)"}
{"molecule": "O=C(NCc1noc2ccccc12)Nc1ccc(Cl)cc1", "note": "[Compound 181028]", "B: compound efficacy (IC50) for NMNAT2 activation; increase in NMNAT2 luciferase activity": "+ (“+” <20% increase in NMNAT2 luciferase activity.)"}
{"molecule": "O=C(NCc1ccc(Cl)cc1)NCc1noc2ccccc12", "note": "[Compound 181029]", "B: compound efficacy (IC50) for NMNAT2 activation; increase in NMNAT2 luciferase activity": "++ (“++” >20% and <100% increase in NMNAT2 luciferase activity.)"}
{"molecule": "Cc1ccc(CCNC(=O)NCc2noc3ccccc23)cc1", "note": "[Compound 181030]", "B: compound efficacy (IC50) for NMNAT2 activation; increase in NMNAT2 luciferase activity": "+ (“+” <20% increase in NMNAT2 luciferase activity.)"}
{"molecule": "CC(=O)c1cccc(NC(=O)NCc2noc3ccccc23)c1", "note": "[Compound 181031]", "B: compound efficacy (IC50) for NMNAT2 activation; increase in NMNAT2 luciferase activity": "+ (“+” <20% increase in NMNAT2 luciferase activity.)"}
{"molecule": "CN(C(=O)NCc1noc2ccccc12)c1ccc(F)cc1", "note": "[Compound 181032]", "B: compound efficacy (IC50) for NMNAT2 activation; increase in NMNAT2 luciferase activity": "+ (“+” <20% increase in NMNAT2 luciferase activity.)"}
{"molecule": "CSc1ccc(CCNC(=O)NCc2noc3ccccc23)cc1", "note": "[Compound 181033]", "B: compound efficacy (IC50) for NMNAT2 activation; increase in NMNAT2 luciferase activity": "++ (“++” >20% and <100% increase in NMNAT2 luciferase activity.)"}
{"molecule": "CC(NC(=O)NCc1noc2ccccc12)c1ccccc1", "note": "(stereo not shown) [Compound 181034]", "B: compound efficacy (IC50) for NMNAT2 activation; increase in NMNAT2 luciferase activity": "+ (“+” <20% increase in NMNAT2 luciferase activity.)"}
{"molecule": "Cc1cc(C)cc(NC(=O)NCc2noc3ccccc23)c1", "note": "[Compound 181035]", "B: compound efficacy (IC50) for NMNAT2 activation; increase in NMNAT2 luciferase activity": "+ (“+” <20% increase in NMNAT2 luciferase activity.)"}
{"molecule": "O=C(NCc1ccccc1)NCc1noc2ccccc12", "note": "[Compound 181036]", "B: compound efficacy (IC50) for NMNAT2 activation; increase in NMNAT2 luciferase activity": "+ (“+” <20% increase in NMNAT2 luciferase activity.)"}
{"molecule": "Cc1ccc2onc(CNC(=O)Nc3cccc(C(F)(F)F)c3)c2c1", "note": "[Compound 181037]", "B: compound efficacy (IC50) for NMNAT2 activation; increase in NMNAT2 luciferase activity": "+ (“+” <20% increase in NMNAT2 luciferase activity.)"}
{"molecule": "Cc1ccc(NC(=O)NCc2noc3ccc(C)cc23)c(Br)c1", "note": "[Compound 181038]", "B: compound efficacy (IC50) for NMNAT2 activation; increase in NMNAT2 luciferase activity": "+ (“+” <20% increase in NMNAT2 luciferase activity.)"}
{"molecule": "Cc1ccc2onc(CNC(=O)Nc3ccc(C)c(F)c3)c2c1", "note": "[Compound 181039]", "B: compound efficacy (IC50) for NMNAT2 activation; increase in NMNAT2 luciferase activity": "+ (“+” <20% increase in NMNAT2 luciferase activity.)"}
{"molecule": "Cc1ccc2onc(CNC(=O)Nc3ccc(F)c(Cl)c3)c2c1", "note": "[Compound 181040]", "B: compound efficacy (IC50) for NMNAT2 activation; increase in NMNAT2 luciferase activity": "+ (“+” <20% increase in NMNAT2 luciferase activity.)"}
{"molecule": "COc1ccc(NC(=O)NCc2noc3ccc(C)cc23)cc1Cl", "note": "[Compound 181041]", "B: compound efficacy (IC50) for NMNAT2 activation; increase in NMNAT2 luciferase activity": "+ (“+” <20% increase in NMNAT2 luciferase activity.)"}
{"molecule": "Cc1ccc2onc(CNC(=O)Nc3ccc(F)cc3F)c2c1", "note": "[Compound 181042]", "B: compound efficacy (IC50) for NMNAT2 activation; increase in NMNAT2 luciferase activity": "+ (“+” <20% increase in NMNAT2 luciferase activity.)"}
{"molecule": "Cc1ccc2onc(CNC(=O)Nc3ccccc3F)c2c1", "note": "[Compound 181043]", "B: compound efficacy (IC50) for NMNAT2 activation; increase in NMNAT2 luciferase activity": "+ (“+” <20% increase in NMNAT2 luciferase activity.)"}
{"molecule": "COc1ccccc1CNC(=O)NCc1noc2ccc(C)cc12", "note": "[Compound 181044]", "B: compound efficacy (IC50) for NMNAT2 activation; increase in NMNAT2 luciferase activity": "+ (“+” <20% increase in NMNAT2 luciferase activity.)"}
{"molecule": "Cc1ccc2onc(CNC(=O)N3CCN(c4cccc(Cl)c4)CC3)c2c1", "note": "[Compound 181045]", "B: compound efficacy (IC50) for NMNAT2 activation; increase in NMNAT2 luciferase activity": "+ (“+” <20% increase in NMNAT2 luciferase activity.)"}
{"molecule": "Cc1ccc2onc(CNC(=O)NC3CCCC(C)C3C)c2c1", "note": "(stereo not shown) [Compound 181046]", "B: compound efficacy (IC50) for NMNAT2 activation; increase in NMNAT2 luciferase activity": "+ (“+” <20% increase in NMNAT2 luciferase activity.)"}
{"molecule": "Cc1ccc2onc(CNC(=O)NCc3ccc(F)cc3)c2c1", "note": "[Compound 181047]", "B: compound efficacy (IC50) for NMNAT2 activation; increase in NMNAT2 luciferase activity": "++ (“++” >20% and <100% increase in NMNAT2 luciferase activity.)"}
{"molecule": "COCCCNC(=O)NCc1noc2ccc(C)cc12", "note": "[Compound 181048]", "B: compound efficacy (IC50) for NMNAT2 activation; increase in NMNAT2 luciferase activity": "++ (“++” >20% and <100% increase in NMNAT2 luciferase activity.)"}
{"molecule": "Cc1ccc2onc(CNC(=O)NC3CCCCCC3)c2c1", "note": "[Compound 181049]", "B: compound efficacy (IC50) for NMNAT2 activation; increase in NMNAT2 luciferase activity": "+ (“+” <20% increase in NMNAT2 luciferase activity.)"}
{"molecule": "Cc1ccc2onc(CNC(=O)NCc3ccccn3)c2c1", "note": "[Compound 181050]", "B: compound efficacy (IC50) for NMNAT2 activation; increase in NMNAT2 luciferase activity": "+ (“+” <20% increase in NMNAT2 luciferase activity.)"}
{"molecule": "Cc1ccc2onc(CNC(=O)NCc3cccnc3)c2c1", "note": "[Compound 181051]", "B: compound efficacy (IC50) for NMNAT2 activation; increase in NMNAT2 luciferase activity": "+ (“+” <20% increase in NMNAT2 luciferase activity.)"}
{"molecule": "CCc1ccc(NC(=O)NCc2noc3ccc(C)cc23)cc1", "note": "[Compound 181052]", "B: compound efficacy (IC50) for NMNAT2 activation; increase in NMNAT2 luciferase activity": "+ (“+” <20% increase in NMNAT2 luciferase activity.)"}
{"molecule": "Cc1ccc2onc(CNC(=O)Nc3ccc(C(C)C)cc3)c2c1", "note": "[Compound 181053]", "B: compound efficacy (IC50) for NMNAT2 activation; increase in NMNAT2 luciferase activity": "+ (“+” <20% increase in NMNAT2 luciferase activity.)"}
{"molecule": "CCN(C(=O)NCc1noc2ccc(C)cc12)c1cccc(Cl)c1", "note": "[Compound 181054]", "B: compound efficacy (IC50) for NMNAT2 activation; increase in NMNAT2 luciferase activity": "+ (“+” <20% increase in NMNAT2 luciferase activity.)"}
